Measurements reported in patent US7402585B2, “Substituted quinazoline derivatives as inhibitors of aurora kinases” (AstraZeneca AB, priority 2001, dated 2008).

Legend:
[1] = molecular target: T1, Aurora-A kinase (Homo sapiens, UniProt O14965); test: In vitro Aurora-A kinase inhibition test; assay type: biochemical
T1 construct: 6His (with spacer region and rTEV protease cleavage site from pFastBac HTc) (N); made in house; host or cells: Spodoptera frugiperda Sf21 insect cells (baculovirus, pFastBac HTc)
T1 sequence (O14965 1-403): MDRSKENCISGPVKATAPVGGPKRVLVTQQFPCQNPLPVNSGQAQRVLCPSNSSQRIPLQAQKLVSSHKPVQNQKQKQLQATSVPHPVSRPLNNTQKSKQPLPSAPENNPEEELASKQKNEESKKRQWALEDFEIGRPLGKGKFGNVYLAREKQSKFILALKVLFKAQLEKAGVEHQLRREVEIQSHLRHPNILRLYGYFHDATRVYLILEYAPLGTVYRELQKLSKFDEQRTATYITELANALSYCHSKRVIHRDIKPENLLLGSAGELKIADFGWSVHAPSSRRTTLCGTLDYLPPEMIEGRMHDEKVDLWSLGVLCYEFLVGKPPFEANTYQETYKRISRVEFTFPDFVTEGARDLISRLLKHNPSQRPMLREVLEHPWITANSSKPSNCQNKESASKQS

[2] = test system: SW620 cells; test: In vitro cell proliferation assay (BrdU incorporation); assay type: cell-based; details: SW-620; SW620 human tumour cell line, 48 hours with compound, 2 hour BrdU labelling; read-out: concentration active (50% inhibition of BrdU incorporation)
Source text: (c) In Vitro Cell Proliferation Assay
This and other assays can be used to determine the ability of a test compound to inhibit the growth of adherent mammalian cell lines, for example the human tumour cell line SW620 (ATCC CCL-227). This assay determines the ability of at test compound to inhibit the incorporation of the thymidine analogue, 5′-bromo-2′-deoxy-uridine (BrdU) into cellular DNA. SW620 or other adherent cells were typically seeded at 1×10^5 cells per well in L-15 media (GIBCO) plus 5% foetal calf serum, 1% L-glutamine (100 μl/well) in 96 well tissue culture treated 96 well plates (Costar) and allowed to adhere overnight. […] The optical density of the wells was then determined at 690 nm wavelength using a Titertek Multiscan plate reader. […]

SMILES | IC50 [1] [nM] | IC50 [2] [nM]
COc1cc2c(Nc3cc(CC(=O)Nc4cccc(F)c4)[nH]n3)ncnc2cc1OCCCN1CCC[C@H]1CO [Compound 8, N-(3-fluorophenyl)-2-{3-[(7-{3-[(2S)-2-(hydroxymethyl)pyrrolidin-1-yl]propoxy}-6-methoxyquinazolin-4-yl)amino]-1H-pyrazol-5-yl}acetamide] | 10 | 86
COc1cc2c(Nc3cc(CC(=O)Nc4cccc(F)c4)[nH]n3)ncnc2cc1OCCCN(C)CCO [Compound 13, N-(3-fluorophenyl)-2-{3-[(7-{3-[(2-hydroxyethyl)(methyl)amino]propoxy}-6-methoxyquinazolin-4-yl)amino]-1H-pyrazol-5-yl}acetamide] | 1 | 79
